# According to ChEMBL document CHEMBL5465560, “Selectivity Literature for EUbOPEN Chemogenomic Library” (2024):
# Legend:
# [1] = molecular target: Ribosomal protein S6 kinase alpha-6 (Homo sapiens, UniProt Q9UK32); assay: Selectivity interaction (KinomeScan (DiscoverX)) EUB0000666a RPS6KA6; details: at 10 µM
# [2] = molecular target: Wee1-like protein kinase (Homo sapiens) (UniProt P30291); assay: Selectivity interaction (KinomeScan (DiscoverX)) EUB0000666a WEE1; details: at 10 µM
# [3] = molecular target: Type-2 angiotensin II receptor (Homo sapiens) (UniProt P50052); assay: Selectivity interaction (Eurofins CEREP Diversity Profile (receptors and ion channels)) EUB0000279b AGTR2; details: at 10 µM
# Chain of Type-2 angiotensin II receptor (Homo sapiens) (P50052 whole entry): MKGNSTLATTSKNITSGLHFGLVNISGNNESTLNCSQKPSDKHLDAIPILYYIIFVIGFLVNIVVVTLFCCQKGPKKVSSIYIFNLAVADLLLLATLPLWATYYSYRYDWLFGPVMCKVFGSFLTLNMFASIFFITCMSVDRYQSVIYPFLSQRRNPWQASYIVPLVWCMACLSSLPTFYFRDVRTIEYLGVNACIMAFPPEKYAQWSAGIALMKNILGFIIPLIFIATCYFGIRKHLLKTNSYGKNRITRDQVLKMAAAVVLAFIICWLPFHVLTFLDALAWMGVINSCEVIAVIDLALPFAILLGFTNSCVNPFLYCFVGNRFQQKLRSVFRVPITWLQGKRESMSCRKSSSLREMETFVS
# [4] = molecular target: T1, Tyrosine-protein kinase JAK3 (Homo sapiens, UniProt P52333); assay: Selectivity interaction (Kinase panel (33PanQinase(R) Activity Assay)) EUB0000877a JAK3
# T1 sequence (P52333 whole entry): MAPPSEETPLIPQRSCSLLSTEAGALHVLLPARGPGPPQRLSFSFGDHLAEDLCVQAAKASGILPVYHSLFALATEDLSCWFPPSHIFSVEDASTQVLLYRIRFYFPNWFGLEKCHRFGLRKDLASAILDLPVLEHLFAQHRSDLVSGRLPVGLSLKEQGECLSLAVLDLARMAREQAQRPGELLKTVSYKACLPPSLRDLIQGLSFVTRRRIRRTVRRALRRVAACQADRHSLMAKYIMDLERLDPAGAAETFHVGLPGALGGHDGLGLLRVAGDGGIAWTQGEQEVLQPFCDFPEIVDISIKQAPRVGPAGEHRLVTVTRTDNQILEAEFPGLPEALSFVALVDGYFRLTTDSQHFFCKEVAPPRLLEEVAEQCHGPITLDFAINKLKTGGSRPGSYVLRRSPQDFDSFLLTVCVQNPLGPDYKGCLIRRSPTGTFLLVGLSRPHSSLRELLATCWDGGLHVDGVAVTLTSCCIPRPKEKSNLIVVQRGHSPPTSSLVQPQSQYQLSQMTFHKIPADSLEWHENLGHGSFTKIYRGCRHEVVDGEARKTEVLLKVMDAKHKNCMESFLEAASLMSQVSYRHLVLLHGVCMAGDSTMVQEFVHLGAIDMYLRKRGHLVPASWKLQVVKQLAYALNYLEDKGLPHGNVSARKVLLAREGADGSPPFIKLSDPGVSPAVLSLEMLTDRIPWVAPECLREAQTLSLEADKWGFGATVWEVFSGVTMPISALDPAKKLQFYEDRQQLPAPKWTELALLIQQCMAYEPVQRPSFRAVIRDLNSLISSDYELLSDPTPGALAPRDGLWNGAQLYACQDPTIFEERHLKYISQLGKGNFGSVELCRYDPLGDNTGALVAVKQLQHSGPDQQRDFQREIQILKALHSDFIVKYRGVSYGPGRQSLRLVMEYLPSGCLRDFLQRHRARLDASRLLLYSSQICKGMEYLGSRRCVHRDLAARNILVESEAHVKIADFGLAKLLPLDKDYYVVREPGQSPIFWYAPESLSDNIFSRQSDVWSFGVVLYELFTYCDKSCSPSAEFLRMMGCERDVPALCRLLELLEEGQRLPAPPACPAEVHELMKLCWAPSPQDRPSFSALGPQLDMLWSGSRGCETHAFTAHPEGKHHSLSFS
# [5] = molecular target: Focal adhesion kinase 1 (Homo sapiens, UniProt Q05397); details: at 10 µM
# [6] = molecular target: Interleukin-1 receptor-associated kinase 1 (Homo sapiens) (UniProt P51617); assay: Selectivity interaction (Kinase panel (Invitrogen)) EUB0000639a IRAK1; details: at 200 nM
# [7] = molecular target: Tyrosine-protein kinase Lyn (Homo sapiens, UniProt P07948); assay: Selectivity interaction (ActivX KiNativ screen (kinase selectivity in THP-1 cell lysates)) EUB0000639a LYN; type: subcellular; details: lysate, at 5 µM
# Chain of Tyrosine-protein kinase Lyn (P07948 2-512 limits assumed): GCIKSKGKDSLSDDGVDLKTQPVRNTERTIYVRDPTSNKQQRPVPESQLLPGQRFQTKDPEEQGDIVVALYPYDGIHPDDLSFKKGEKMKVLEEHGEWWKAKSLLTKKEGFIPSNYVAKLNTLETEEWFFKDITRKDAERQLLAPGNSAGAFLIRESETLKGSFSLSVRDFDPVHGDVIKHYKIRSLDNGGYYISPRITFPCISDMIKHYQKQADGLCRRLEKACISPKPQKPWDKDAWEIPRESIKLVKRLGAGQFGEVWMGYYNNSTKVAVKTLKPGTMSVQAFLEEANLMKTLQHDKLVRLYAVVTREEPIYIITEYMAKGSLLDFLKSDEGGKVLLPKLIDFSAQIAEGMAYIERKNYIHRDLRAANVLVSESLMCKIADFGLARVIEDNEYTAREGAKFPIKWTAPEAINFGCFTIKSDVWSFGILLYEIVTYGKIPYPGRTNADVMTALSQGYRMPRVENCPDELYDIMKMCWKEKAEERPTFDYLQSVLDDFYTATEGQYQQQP
# [8] = molecular target: Phosphatidylinositol 4,5-bisphosphate 3-kinase catalytic subunit gamma isoform (Homo sapiens) (UniProt P48736); assay: Selectivity interaction (Kinase panel (Invitrogen)) EUB0000639a PIK3CG; details: at 200 nM
# Chain of Phosphatidylinositol 4,5-bisphosphate 3-kinase catalytic subunit gamma isoform (Homo sapiens) (P48736 whole entry, looked up, canonical isoform): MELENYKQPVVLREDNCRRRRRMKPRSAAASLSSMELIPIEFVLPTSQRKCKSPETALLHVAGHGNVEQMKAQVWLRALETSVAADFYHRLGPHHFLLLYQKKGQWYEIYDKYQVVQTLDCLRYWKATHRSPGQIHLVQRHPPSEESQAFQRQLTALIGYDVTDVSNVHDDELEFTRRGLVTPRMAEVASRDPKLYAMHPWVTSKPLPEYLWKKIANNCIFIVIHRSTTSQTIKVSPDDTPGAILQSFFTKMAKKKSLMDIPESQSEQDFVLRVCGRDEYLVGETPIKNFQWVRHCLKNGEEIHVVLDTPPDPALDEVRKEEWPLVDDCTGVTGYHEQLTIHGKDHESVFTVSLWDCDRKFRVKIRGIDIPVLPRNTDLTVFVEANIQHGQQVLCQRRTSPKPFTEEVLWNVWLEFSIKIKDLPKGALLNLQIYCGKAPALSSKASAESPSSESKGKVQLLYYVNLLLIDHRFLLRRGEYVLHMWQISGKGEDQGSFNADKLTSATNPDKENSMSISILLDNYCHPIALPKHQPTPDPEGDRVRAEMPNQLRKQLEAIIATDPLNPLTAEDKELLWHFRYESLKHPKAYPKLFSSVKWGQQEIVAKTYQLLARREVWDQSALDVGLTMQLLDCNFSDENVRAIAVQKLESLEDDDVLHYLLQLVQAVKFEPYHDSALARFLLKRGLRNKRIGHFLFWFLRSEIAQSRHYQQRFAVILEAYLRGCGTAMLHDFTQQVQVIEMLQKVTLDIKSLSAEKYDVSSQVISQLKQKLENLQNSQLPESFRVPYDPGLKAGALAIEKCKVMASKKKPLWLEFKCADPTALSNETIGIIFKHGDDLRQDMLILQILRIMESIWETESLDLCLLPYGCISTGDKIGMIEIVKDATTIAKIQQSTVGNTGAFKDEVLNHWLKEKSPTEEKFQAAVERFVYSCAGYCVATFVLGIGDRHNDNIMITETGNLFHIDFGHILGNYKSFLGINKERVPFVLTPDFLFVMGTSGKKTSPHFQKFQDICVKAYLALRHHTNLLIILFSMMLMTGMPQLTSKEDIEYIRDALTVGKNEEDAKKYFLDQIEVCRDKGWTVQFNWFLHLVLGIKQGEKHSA
# [9] = molecular target: Ribosomal protein S6 kinase alpha-3 (Homo sapiens, UniProt P51812); assay: Selectivity interaction (ActivX KiNativ screen (kinase selectivity in THP-1 cell lysates)) EUB0000639a RPS6KA3; type: subcellular; details: lysate, at 1 µM
# [10] = molecular target: Serine/threonine-protein kinase WNK1 (Homo sapiens) (UniProt Q9H4A3); assay: Selectivity interaction (ActivX KiNativ screen (kinase selectivity in THP-1 cell lysates)) EUB0000639a WNK1; type: subcellular; details: lysate, at 1 µM
# Chain of Serine/threonine-protein kinase WNK1 (Homo sapiens) (Q9H4A3 whole entry, looked up): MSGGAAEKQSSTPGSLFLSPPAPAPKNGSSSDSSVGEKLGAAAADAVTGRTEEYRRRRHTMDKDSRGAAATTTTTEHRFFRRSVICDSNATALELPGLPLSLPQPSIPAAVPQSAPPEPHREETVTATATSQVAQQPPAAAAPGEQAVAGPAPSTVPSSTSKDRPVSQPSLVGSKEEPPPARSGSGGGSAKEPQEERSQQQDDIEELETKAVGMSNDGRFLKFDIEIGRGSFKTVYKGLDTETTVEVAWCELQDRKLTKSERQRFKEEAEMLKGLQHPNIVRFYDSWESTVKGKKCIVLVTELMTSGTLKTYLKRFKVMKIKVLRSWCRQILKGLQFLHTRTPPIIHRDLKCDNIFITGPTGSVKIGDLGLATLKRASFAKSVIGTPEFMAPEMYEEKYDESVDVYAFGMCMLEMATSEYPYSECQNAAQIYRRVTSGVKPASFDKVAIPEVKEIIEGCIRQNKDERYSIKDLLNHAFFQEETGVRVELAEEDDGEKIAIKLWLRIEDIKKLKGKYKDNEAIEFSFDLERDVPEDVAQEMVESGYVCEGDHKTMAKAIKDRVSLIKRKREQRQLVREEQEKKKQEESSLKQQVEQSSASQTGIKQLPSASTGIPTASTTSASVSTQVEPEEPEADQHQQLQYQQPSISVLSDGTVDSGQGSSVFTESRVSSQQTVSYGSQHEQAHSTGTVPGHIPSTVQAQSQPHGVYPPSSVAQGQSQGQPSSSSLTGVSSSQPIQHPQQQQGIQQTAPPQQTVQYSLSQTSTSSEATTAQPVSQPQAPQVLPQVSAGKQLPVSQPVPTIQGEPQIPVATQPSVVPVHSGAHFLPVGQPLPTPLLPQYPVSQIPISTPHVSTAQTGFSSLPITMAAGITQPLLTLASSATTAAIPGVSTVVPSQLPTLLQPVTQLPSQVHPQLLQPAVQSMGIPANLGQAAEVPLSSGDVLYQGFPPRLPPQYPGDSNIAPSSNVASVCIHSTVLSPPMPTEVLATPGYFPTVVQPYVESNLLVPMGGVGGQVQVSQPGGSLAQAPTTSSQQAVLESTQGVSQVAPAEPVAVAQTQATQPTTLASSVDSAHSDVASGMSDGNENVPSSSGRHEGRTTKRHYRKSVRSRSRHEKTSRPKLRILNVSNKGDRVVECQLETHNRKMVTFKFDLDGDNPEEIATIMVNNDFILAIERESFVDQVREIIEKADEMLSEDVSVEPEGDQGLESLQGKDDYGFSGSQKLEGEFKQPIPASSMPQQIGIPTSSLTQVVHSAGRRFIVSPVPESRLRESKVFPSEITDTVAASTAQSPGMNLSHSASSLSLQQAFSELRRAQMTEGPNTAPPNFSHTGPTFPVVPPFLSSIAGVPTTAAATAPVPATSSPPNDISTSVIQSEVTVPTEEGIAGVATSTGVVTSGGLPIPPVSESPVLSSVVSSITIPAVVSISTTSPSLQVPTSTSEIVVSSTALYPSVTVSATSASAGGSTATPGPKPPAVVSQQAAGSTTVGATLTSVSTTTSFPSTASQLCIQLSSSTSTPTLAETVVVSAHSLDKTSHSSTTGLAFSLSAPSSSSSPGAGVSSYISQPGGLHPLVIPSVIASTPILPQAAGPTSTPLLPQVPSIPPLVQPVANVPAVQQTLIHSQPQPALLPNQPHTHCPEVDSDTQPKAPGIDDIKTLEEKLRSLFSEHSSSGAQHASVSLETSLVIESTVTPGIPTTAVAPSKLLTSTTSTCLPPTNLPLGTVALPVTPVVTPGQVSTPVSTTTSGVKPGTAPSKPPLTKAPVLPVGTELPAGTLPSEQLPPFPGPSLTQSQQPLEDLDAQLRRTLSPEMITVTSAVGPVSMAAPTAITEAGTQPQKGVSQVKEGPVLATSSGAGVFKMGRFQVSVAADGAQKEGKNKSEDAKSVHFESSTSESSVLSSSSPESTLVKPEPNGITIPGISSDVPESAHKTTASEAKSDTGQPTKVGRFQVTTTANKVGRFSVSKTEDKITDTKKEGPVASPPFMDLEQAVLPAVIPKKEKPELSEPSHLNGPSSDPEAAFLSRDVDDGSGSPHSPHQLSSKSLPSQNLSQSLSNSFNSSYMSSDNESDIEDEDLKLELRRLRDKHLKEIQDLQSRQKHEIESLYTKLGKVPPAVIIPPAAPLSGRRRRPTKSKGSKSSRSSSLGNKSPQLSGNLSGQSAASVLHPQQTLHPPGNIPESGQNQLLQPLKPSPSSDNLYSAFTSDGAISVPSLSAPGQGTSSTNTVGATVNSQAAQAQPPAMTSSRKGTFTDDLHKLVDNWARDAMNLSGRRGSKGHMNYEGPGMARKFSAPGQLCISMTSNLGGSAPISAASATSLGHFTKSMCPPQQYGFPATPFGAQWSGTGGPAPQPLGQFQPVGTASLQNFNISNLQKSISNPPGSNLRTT
# [11] = molecular target: T2, Aurora kinase A (Homo sapiens) (UniProt O14965); assay: Selectivity interaction (Kinase panel (DSF assay)) EUB0001489b STK6
# T2 sequence (whole entry): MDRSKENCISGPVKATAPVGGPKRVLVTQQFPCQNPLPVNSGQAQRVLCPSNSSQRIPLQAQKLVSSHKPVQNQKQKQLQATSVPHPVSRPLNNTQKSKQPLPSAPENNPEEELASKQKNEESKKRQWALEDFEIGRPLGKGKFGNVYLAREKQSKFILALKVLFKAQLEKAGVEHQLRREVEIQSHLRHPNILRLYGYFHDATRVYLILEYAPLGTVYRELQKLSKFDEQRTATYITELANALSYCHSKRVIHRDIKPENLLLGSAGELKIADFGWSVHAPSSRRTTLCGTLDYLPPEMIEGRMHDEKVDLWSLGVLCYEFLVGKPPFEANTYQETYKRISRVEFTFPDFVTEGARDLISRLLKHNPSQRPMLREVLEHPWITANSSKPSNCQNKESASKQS
# [12] = molecular target: Wee1-like protein kinase (Homo sapiens) (UniProt P30291); details: at 10 µM
# [13] = molecular target: Casein kinase II subunit alpha' (Homo sapiens) (UniProt P19784); assay: Selectivity interaction (KinomeScan (DiscoverX)) EUB0001619a CSNK2A2; details: at 1 µM
# [14] = molecular target: Receptor tyrosine-protein kinase erbB-2 (Homo sapiens, UniProt P04626); assay: Selectivity interaction (KinomeScan (DiscoverX)) EUB0001619a ERBB2; details: at 1 µM
# [15] = molecular target: Cyclin-dependent kinase 17 (Homo sapiens) (UniProt Q00537); assay: Selectivity interaction (ActivX KiNativ screen (ex vivo kinase selectivity in human PBMCs)) EUB0001619a CDK17; type: cell-based; details: PBMC, at 1 µM
# [16] = molecular target: Ephrin type-A receptor 2 (Homo sapiens) (UniProt P29317); assay: Selectivity interaction (SelectScreen profiling (Invitrogen)) EUB0000607a EPHA2; details: at 2 µM
# [17] = molecular target: Histone-lysine N-methyltransferase SETDB1 (Homo sapiens) (UniProt Q15047); assay: Selectivity interaction (Methyltransferase screen (radiometric assays, panel of 8 PRMTs, 21 protein lysine methyltransferases, 3 DNA methyltransferases, and one RNA methyltransferase)) EUB0000272b SETDB1
# [18] = molecular target: Casein kinase II subunit alpha (Homo sapiens, UniProt P68400); assay: Selectivity interaction (Kinase panel (Z-LYTE Assay)) EUB0001632a CSNK2A1; details: at 10 µM
# Chain of Wee1-like protein kinase (Homo sapiens) (P30291 whole entry, looked up): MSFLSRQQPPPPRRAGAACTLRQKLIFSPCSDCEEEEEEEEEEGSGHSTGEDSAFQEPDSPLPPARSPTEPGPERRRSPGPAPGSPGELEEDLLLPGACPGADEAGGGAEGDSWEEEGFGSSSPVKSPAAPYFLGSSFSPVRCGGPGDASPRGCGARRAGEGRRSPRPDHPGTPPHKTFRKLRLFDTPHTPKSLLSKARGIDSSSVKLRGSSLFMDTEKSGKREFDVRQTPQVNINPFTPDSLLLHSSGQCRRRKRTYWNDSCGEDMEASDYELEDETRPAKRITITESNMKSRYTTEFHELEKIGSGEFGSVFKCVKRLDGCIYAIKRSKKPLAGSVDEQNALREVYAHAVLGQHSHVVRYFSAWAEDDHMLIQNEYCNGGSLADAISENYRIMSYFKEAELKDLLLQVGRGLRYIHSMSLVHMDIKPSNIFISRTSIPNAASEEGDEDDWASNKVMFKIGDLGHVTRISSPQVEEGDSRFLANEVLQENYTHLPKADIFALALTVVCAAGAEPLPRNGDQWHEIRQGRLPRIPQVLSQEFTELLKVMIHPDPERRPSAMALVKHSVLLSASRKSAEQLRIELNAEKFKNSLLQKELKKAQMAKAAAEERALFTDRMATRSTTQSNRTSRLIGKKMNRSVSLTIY
structure (smiles),measurement,setting,value
O=C(NOC[C@H](O)CO)c1ccc(F)c(F)c1Nc1ccc(I)cc1F,% of control,[1],80%
same,% of control,[2],67%
CC(=O)c1cc(-c2ccccc2OCC2CC2)c2ncccn12,% of control,[3],106%
CCC(=O)N1CC[C@H](Nc2ncnc3c2CN(c2cnc(OC)c(C(F)(F)F)c2)CC3)C1 [LENIOLISIB],IC50,[4],> 10 µM
CCN(CC)CCCCNc1ncc2cc(-c3cc(OC)cc(OC)c3)c(NC(=O)NC(C)(C)C)nc2n1,% of control,[5],100%
CC[C@@H]1[C@H](F)C(=O)N[C@@H]1COc1nccc2cc(C(N)=O)c(OC)cc12 [ZIMLOVISERTIB],% of inhibition,[6],91.4%
same,% of inhibition,[7],-9.2%
same,% of inhibition,[8],6.49%
same,% of inhibition,[9],-8.2%
same,% of inhibition,[10],-7.7%
CN1CCN(C(=O)c2ccc3cc2OCCOCCNc2ccn4ncc-3c4n2)CC1,dTM,[11],4.2 K
Cc1cc([C@@H](C)Nc2ccccc2C(=O)O)c2nc(N3CCOCC3)cc(=O)n2c1 [AZD-6482],% of control,[12],100%
N#Cc1cccc(-c2c[nH]c3ncnc(N4CCOCC4)c23)c1,% of control,[13],45%
same,% of control,[14],73%
same,% of inhibition,[15],25%
CNC(=O)Nc1ccc(-c2nc(N3CC4CCC(C3)O4)c3cnn(C4CCC5(CC4)OCCO5)c3n2)cc1,% of inhibition,[16],8%
Cc1cc(C)cc([C@H]2c3cc(C)ccc3NC(=O)CN2C(=O)c2ccc(Br)s2)c1,% of activity,[17]; at 1 µM,103%
same,% of activity,[17]; at 10 µM,104%
Cn1cc(-n2cnc3c(NCc4nc5cc(Cl)c(Cl)cc5[nH]4)nc(N4CCOCC4)nc32)cn1,% of control,[18],-3.76%
